This passage reports IC50 results from BindingDB's records for doi:10.1016/S0960-894X(97)00246-1 (1997).

Assay [1] concerns the target Group IIA secretory phospholipase A2 (Homo sapiens). Nature of the assay: Compound was measured for the inhibitory activity against Secretory phospholipase A 2 (s-PLA2).
Assay [2] shares this target. As to the kind of experiment: Compound was measured for the inhibitory activity against secretory-phospholipase A2 (s-PLA2).

Usually IC50 stands for the concentration needed to halve the response being measured. The low end stands for greater potency in that assay, the high end for weaker potency in that assay.

The compound `CCCCCCCOc1ccc(C(=O)O)cc1CC(=O)C(F)(F)F` [4-Heptyloxy-3-(3,3,3-trifluoro-2-oxo-propyl)-benzoic acid] came in with a half-maximal inhibitory concentration (IC50) in assay [1] of 1.7 µM.
In turn, `O=C(O)c1ccc2cccc(C(=O)C(F)(F)F)c2c1` [8-(2,2,2-Trifluoro-acetyl)-naphthalene-2-carboxylic acid] came in with an IC50 in assay [1] of 2.4 µM.
As to `CCCCCCCCCCCCCCCCCCOP(=O)(O)c1cccc2ccc(C(=O)O)cc12` [8-(Hydroxy-octadecyloxy-phosphoryl)-naphthalene-2-carboxylic acid], in assay [2], 3.9 µM corresponded to half-maximal inhibition (IC50).
In assay [1], `CCCCCCCCOP(=O)(O)c1cccc2ccc(C(=O)O)cc12` [8-(Hydroxy-octyloxy-phosphoryl)-naphthalene-2-carboxylic acid] showed an IC50 above 200 µM.
Regarding `CCCCCCCCCCOP(=O)(O)c1cc(OCc2ccccc2)ccc1/C=C/C(=O)O` [(E)-3-[4-Benzyloxy-2-(decyloxy-hydroxy-phosphoryl)-phenyl]-acrylic acid], in assay [1], the IC50 turned out to be 4.5 µM.
